Experimental data taken from US20230141403A1 (Hoffmann-La Roche Inc., priority 2020, published 2023).
Counter-ions that a name gives are not always drawn.

The compounds below were run on Acinetobacter baumannii ATCC17961 (assay: Antimicrobial susceptibility testing: 90% growth inhibitory concentration (IC90) determination). Conditions: 90% growth inhibitory concentration; Iso-Sensitest broth, optical density at 600 nm over 16h, 35±2° C.; read-out: AB ATCC 17961 IC90.
Format: cell-based
Procedure: (§1) Antimicrobial Susceptibility Testing:
(§2) 90% Growth Inhibitory Concentration (IC90) Determination
(§3) The in vitro antimicrobial activity of the compounds was determined according to the following procedure:
(§4) The assay used a 10-points Iso-Sensitest broth medium to measure quantitatively the in vitro activity of the compounds against Acinetobacter baumannii ATCC17961 or ATCC17978.
(§5) Stock compounds in DMSO were serially twofold diluted (e.g. range from 50 to 0.097 μM final concentration) in 384 wells microtiter plates and inoculated with 49 μl the bacterial suspension in Iso-Sensitest medium to have a final cell concentration of ˜5×10^(5) CFU/ml in a final volume/well of 50 ul/well. Microtiter plates were incubated at 35±2° C.
(§6) Bacterial cell growth was determined with the measurement of optical density at λ=600 nm each 20 minutes over a time course of 16h. Growth inhibition was calculated during the logarithmic growth of the bacterial cells with determination of the concentration inhibiting 50% (IC50) and 90% (IC90) of the growth.
Table 2 provides the 90% growth inhibitory concentrations (IC90) in micromoles per liter of the compounds of present invention obtained against the strain Acinetobacter baumannii ATCC17961.

| SMILES | IC90 [µM] |
| --- | --- |
| COc1ccc(-c2cnc3c(Nc4ccc(S(C)(=O)=NCCCNC(=O)[C@H]5C[C@H](O)CN5)c(C)c4)nccn23)c(F)c1F (mixture of isomers) [Example 32, rac-(2R,4S)—N-(3-(((4-((3-(2,3-difluoro-4-methoxyphenyl)imidazo[1,2-a]pyrazin-8-yl)amino)-2-methylphenyl)(methyl)oxo)-l6-sulfaneylidene)amino)propyl)-4-hydroxypyrrolidine-2-carboxamide dihydrochloride] | 0.17 |
| CN=S(C)(=O)c1ccc(Nc2nccn3c(-c4ccc(OC)c(F)c4F)cnc23)cc1C (centres unmarked) [Example 22, 3-(2,3-difluoro-4-methoxy-phenyl)-N-[4-(N,S-dimethylsulfonimidoyl)-3-methyl-phenyl]imidazo[l,2-a]pyrazin-8-amine] | 0.084 |

Same assay, conditions: Acinetobacter baumannii, ATCC17961, 16 h, 90% growth inhibitory concentration; Iso-Sensitest broth, optical density at 600 nm over 16h, 35±2° C.; read-out: AB ATCC 17961 IC90

| SMILES | IC90 [µM] |
| --- | --- |
| COc1ccc(-c2cnc3c(Nc4ccc(N5CCC(CN)CC5)c(Cl)c4)nccn23)c(F)c1F [Example 115, N-(4-(4-(aminomethyl)piperidin-1-yl)-3-chlorophenyl)-3-(2,3-difluoro-4-methoxyphenyl) imidazo [1,2-a]pyrazin-8-amine hydrochloride] | 0.49 |
| NCCOCC1CC(=O)N(c2ccc(Nc3nccn4c(-c5ccc(OC(F)F)cc5)cnc34)cc2)C1 (centres unmarked) [Example 64, 4-((2-aminoethoxy)methyl)-1-(4-((3-(4-(difluoromethoxy)phenyl)imidazo[1,2-a]pyrazin-8-yl)amino)phenyl)pyrrolidin-2-one] | 0.12 |
| CN=S(=O)(CCCN)c1ccc(Nc2nccn3c(-c4ccc(OC)c(F)c4F)cnc23)cc1 (centres unmarked) [Example 71, N-(4-(3-amino-N-methylpropylsulfonimidoyl)phenyl)-3-(2,3-difluoro-4-methoxyphenyl)imidazo[1,2-a]pyrazin-8-amine] | 0.086 |
| CCc1cc(Nc2nccn3c(-c4ccc(OC)c(F)c4F)cnc23)ccc1C[N+](C)(C)C [Example 123, [4-[[3-(2,3-difluoro-4-methoxy-phenyl)imidazo[1,2-a]pyrazin-8-yl]amino]-2-ethyl-phenyl]methyl-trimethyl-ammonium] | 0.58 |
| COc1ccc(-c2cnc3c(Nc4ccc([S@](C)(=O)=NCCCN)c(C)c4)nccn23)c(F)c1F [Example 27, (−)-((3-aminopropyl)imino)(4-((3-(2,3-difluoro-4-methoxyphenyl)imidazo[1,2-a]pyrazin-8-yl)amino)-2-methylphenyl)(methyl)-l6-sulfanone] | 0.086 |
| COc1ccc(-c2cnc3c(Nc4ccc(S(C)(=O)=NCCCNC(=O)[C@@H]5C[C@@H](O)CN5)cc4)nccn23)c(F)c1F (mixture of isomers) [Example 33, rac-(2R,4S)-N-(3-(((4-((3-(2,3-difluoro-4-methoxyphenyl)imidazo[1,2-a]pyrazin-8-yl)amino)phenyl) (methyl)(oxo)-16-sulfaneylidene)amino)propyl)-4-hydroxypyrrolidine-2-carboxamide dihydrochloride] | 0.49 |
| CN=S(C)(=O)c1ccc(Nc2nccn3c(-c4ccc(OC)c(F)c4F)cnc23)cc1F (centres unmarked) [Example 26, (4-((3-(2,3-difluoro-4-methoxyphenyl)imidazol[1,2-a]pyrazin-4-yl)amino)-2-fluorophenyl)(methyl)(methylimino)-l6-sulfanone] | 0.14 |
| NCCCCCC1CC(=O)N(c2ccc(Nc3nccn4c(-c5ccc(OC(F)F)cc5)cnc34)cc2)C1 (centres unmarked) [Example 62, 4-(5-aminopentyl)-1-(4-((3-(4-(difluoromethoxy)phenyl)imidazo[1,2-a]pyrazin-s-yl)amino)phenyl)pyrrolidin-2-one] | 0.094 |
| COc1ccc(-c2cnc3c(Nc4ccc([S@@](C)(=O)=NCCCNC(=O)[C@@H]5C[C@@H](O)CN5)c(C)c4)nccn23)c(F)c1F [Example 30, (2S,4R)-N-(3-(((+)-(4-((3-(2,3-difluoro-4-methoxyphenyl)imidazo[1,2-a]pyrazin-8-yl)amino)-2-methylphenyl) (methyl)(oxo)-16-sulfaneylidene)amino)propyl)-4-hydroxypyrrolidine-2-carboxamide dihydrochloride] | 0.13 |
| COc1ccc(-c2cnc3c(Nc4ccc(S(=O)(=O)N5CCN(CCCN(C)C)CC5)c(C)c4)nccn23)c(F)c1F [Example 98] | 0.29 |
| COc1ccc(-c2cnc3c(Nc4ccc([S@](C)(=O)=NCCCNC(=O)[C@@H]5C[C@@H](O)CN5)c(C)c4)nccn23)c(F)c1F [Example 29, (2S,4R)—N-(3-(((−)-(4-((3-(2,3-difluoro-4-methoxyphenyl)imidazo[1,2-a]pyrazin-s-yl)amino)-2-methylphenyl)(methyl)(oxo)-l6-sulfaneylidene)amino)propyl)-4-hydroxypyrrolidine-2-carboxamide] | 0.18 |
| COc1ccc(-c2cnc3c(Nc4ccc(S(=O)(=O)NCCOCCN(C)C)c(Cl)c4)nccn23)c(F)c1F [Example 97] | 0.18 |
| CN=S(=O)(c1ccc(Nc2nccn3c(-c4ccc(OC)c(F)c4F)cnc23)cc1C)N(C)C (stereo not drawn) [Example 31, 3-(2,3-difluoro-4-methoxy-phenyl)-N-[4-[S-(dimethylamino)-N-methyl-sulfonimidoyl]-3-methyl-phenyl]imidazo[1,2-a]pyrazin-8-amine] | 0.5 |
| COc1ccc(-c2cnc3c(Nc4ccc(S(=O)(=O)NCCOCCN)c(Cl)c4)nccn23)c(F)c1F [Example 101, N-(2-(2-aminoethoxy)ethyl)-2-chloro-4-((3-(2,3-difluoro-4-methoxyphenyl)imidazo[1,2-a]pyrazin-8-yl)amino) benzenesulfonamide hydrochloride] | 0.078 |
| CCc1cc(Nc2nccn3c(-c4ccc(OC)c(F)c4F)cnc23)ccc1S(=O)(=O)N1CCN(C(=O)[C@@H]2C[C@@H](O)CN2)CC1 [Example 106, (4-((4-((3-(2,3-difluoro-4-methoxyphenyl)imidazo [1,2-a]pyrazin-8-yl)amino)-2-ethylphenyl)sulfonyl)piperazin-1-yl)((2S,4R)-4-hydroxypyrrolidin-2-yl)methanone hydrochloride] | 0.25 |
| CN=S(=O)(c1ccc(Nc2nccn3c(-c4ccc(OC)c(F)c4F)cnc23)cc1)C1CCN(C(=O)[C@@H]2C[C@@H](O)CN2)CC1 (stereo partly drawn) [Example 74, (4-(4-((3-(2,3-difluoro-4-methoxyphenyl)imidazo[1,2-a]pyrazin-8-yl)amino)-N-methylphenylsulfonimidoyl)piperidin-1-yl)((2S,4R)-4-hydroxypyrrolidin-2-yl)methanone] | 0.15 |
| COc1ccc(-c2cnc3c(Nc4ccc(NC(=O)CN5CCNCC5)c(C)c4)nccn23)cc1 [Example 37, N-(4-((3-(4-methoxyphenyl)imidazo[1,2-a]pyrazin-8-yl)amino)-2-methylphenyl)-2-(piperazin-1-yl)acetamide] | 0.21 |

Same assay, conditions: Acinetobacter baumannii, ATCC17961, 16 h, read-out: AB ATCC 17961 IC90 (uM)

| SMILES | IC90 [µM] |
| --- | --- |
| COc1ccc(-c2cnc3c(Nc4ccc(S(=O)(=O)NCCOCCN)cc4)nccn23)c(F)c1F [Example 102, N-(2-(2-aminoethoxy)ethyl)-4-(3-(2,3-difluoro-4-methoxyphenyl)imidazo [1,2-a]pyrazin-8-yl)amino) benzenesulfonamide hydrochloride] | 0.39 |
| COc1ccc(-c2cnc3c(Nc4ccc(S(=O)(=O)N5CCN(CCCN(C)C)CC5)c(Cl)c4)nccn23)c(F)c1F [Example 96, N-(3-chloro-4-((4-(3-(dimethylamino)propyl)piperazin-1-yl)sulfonyl)phenyl)-3-(2,3-difluoro-4-methoxyphenyl)imidazo[1,2-a]pyrazin-8-amine] | 0.2 |
| CCc1cc(Nc2nccn3c(-c4ccc(OC)c(F)c4F)cnc23)ccc1S(C)(=O)=NCCCN (centres unmarked) [Example 70, N-[4-[N-(3-aminopropyl)-S-methyl-sulfonimidoyl]-3-ethyl-phenyl]-3-(2,3-difluoro-4-methoxy-phenyl)imidazo[1,2-a]pyrazin-8-amine; formic acid] | 0.19 |

Each compound was assayed on Acinetobacter baumannii ATCC17978 in the same assay as above. Conditions: ATCC17978, 90% growth inhibitory concentration, Iso-Sensitest broth, optical density at 600 nm over 16h, 35±2° C., read-out: AB ATCC 17978 IC90.
Format: cell-based
Procedure: as §1, §2, §3, §4, §5, §6
Table 1 provides the 90% growth inhibitory concentrations (IC90) in micromoles per liter of the compounds of present invention obtained against the strain Acinetobacter baumannii ATCC17978.

| SMILES | IC90 [nM] |
| --- | --- |
| CC(=O)Nc1ccc(Nc2nccn3c(-c4ccc(Cl)c(F)c4)cnc23)cc1C [Example 84, N-(4-((3-(4-chloro-3-fluorophenyl)imidazo[1,2-a]pyrazin-8-yl)amino)-2-methylphenyl)] | 170 |
| Cc1cc(Nc2nccn3c(-c4ccc(Cl)cc4)cnc23)ccc1N1CCCC1=O [Example 60, 1-(4-((3-(4-chlorophenyl)imidazo[1,2-a]pyrazin-8-yl)amino)-2-methylphenyl)pyrrolidin-2-one] | 760 |
| CCc1cc(Nc2nccn3c(-c4ccc(OC)cc4)cnc23)ccc1NC(C)=O [Example 38, N-(2-ethyl-4-((3-(4-methoxyphenyl)imidazo[1,2-a]pyrazin-8-yl)amino)phenyl)acetamide] | 200 |
| CCN1CCN(CC(=O)Nc2ccc(Nc3nccn4c(-c5ccc(OC(F)F)cc5)cnc34)cc2C)CC1 [Example 55, N-(4-((3-(4-(difluoromethoxy)phenyl)imidazo[1,2-a]pyrazin-8-yl)amino)-2-methylphenyl)-2-(4-ethylpiperazin-1-yl)acetamide] | 280 |
